Data published in patent US12029715B2, “Precursor compounds for providing retinoids of the vitamin A5 pathway and uses thereof” (UNIVERSITY OF DEBRECEN, priority 2015, dated 2024).
“Also recorded” adds a separate entry of the source.

Experiments:
[1] = tested on: oligodendrocytes cell line 158N; assay: Metabolic conversion in mouse oligodendrocytes cell culture (LC-MS); format: in vitro ADME; settings: for 9CDHRA levels in cells after treatment: 10^−5M for 18 h; for 9CDHROL levels in cells after treatment: 10^−6 M, 18 hours; for conversion to 9CDHRA: data not shown; for 9CBC in cells after treatment: 411 nm detection, retention time 26.1 min; for 9CDHBC peak in cells after treatment: UV detection at 366 nm, retention time 25.1 min
Procedure: Normal immortalized oligodendrocytes cell line 158N was cultured as previously reported (Feutz et al., 2001). Expediently, cells were cultured in supplemented with 5% calf serum (Invitrogen, France). When cells attained 70% of confluency they were treated with 10^−2 M ethanol solution of one of the following compounds: 9CDHROL, 9CDHROL-acetate, 9CDHRA-ethyl ester. 9CDHRA and ethanol as controls, vehicle treatment. 18 h after treatment cells were collected in amber Eppendorf tubes and stored at −80° C. until analyses. Treatments and cell collection were carried out in light limited conditions to avoid photolysis of retinoids.
(§1) In a slight variant of the method, after reaching confluency of 80% cells were treated with 9CDHROL, 9CDH-retinyl ester (acetate, 9CDHROL-ES), 9CDHRA, 9CDH-retinoyl ester, (ethyl ester, 9CDHRA-ES), ATROL, 9CDHBC, 9CBC and ATBC at a concentration of 10^−6 M or ethanol at corresponding concentration was used as control vehicle treatment. Cells were harvested 18 hours later, centrifuged, weighted, frozen in liquid nitrogen and stored at −80° C. until analyses.
(§2) High performance liquid chromatography mass spectrometry (LC-MS) was carried out as described in Example 4.

[2] = tested on: human oligodendrocytes cell cultures; assay: Metabolic conversion in human oligodendrocytes cell culture (HPLC-MS); format: in vitro ADME; settings: 10^−6M; for 9CDHRA levels in cells after treatment (metabolism / accumulation): n=3
Procedure: as §1, §2
9CDHRA levels including standard deviation in human oligodendrocytes cultures were assessed using HPLC-MS analysis after control treatment using ethanol (CTRL), as well as ATROL treatment (ATROL), 9CBC treatments (9CBC), ATBC treatments (ATBC), 9CDHBC treatment (9CDHBC), 9CDHROL treatments (9CDHROL), 9CDHROL-ester treatments (9CDHROL-ES), 9CDHRA treatments (9CDHRA) or 9CDHRA-ester treatments (9CDHRA-ES), each with 10^−6M concentration and n=3 (FIG. 14D).

[3] = tested on: differentiating monocyte-derived human dendritic cells; assay: DNA microarray in differentiating monocyte-derived dendritic cells; format: cell-based; settings: for expression of genes that are direct targets of RXR permissive heterodimers (LXR-RXR, PPAR-RXR) and RAR-RXR: 9CDHRA 10 μM, 9CRA 1 μM, GW3965 1 μM, RSG 1 μM, GW1516 1 μM, AM580 100 nM
Procedure: The generation and transcriptional analysis of differentiating DCs were performed as described previously [Szeles L et al. 2010]. Microarray data were deposited into the Gene Expression Omnibus database under accession no. GSE48573.
The generation and analysis of differentiating DCs were performed as described previously [Szeles L et al. 2010] with minor modifications. Briefly, human monocytes were isolated from healthy volunteer's buffy coat, obtained with a Regional Ethical Board permit from the Regional Blood Bank and isolated by Ficoll gradient centrifugation followed by immunomagnetic cell separation, and were cultured in the presence of GM-CSF and IL-4. Differentiating DCs were stimulated 18 h after […] by various agonists for 12 h. The ligands were used in the following concentrations: 10 μM (R)-9CDHRA, 10 μM (S)-9CDHRA, 1 μM 9cisRA, 100 nM LG100268, 1 μM GW3965, 1 μM Rosiglitazone (RSG), 1 μM GW1516, 100 nM AM580. Experiments were performed in biological triplicates. Samples were processed and hybridized to Human Genome U133 Plus 2.0 Arrays. Data were analysed using to GeneSpring 12.6.1 software. In detail, normalization was performed using RMA summarization algorithm. […] Microarray data were deposited into the Gene Expression Omnibus database under accession no. GSE48573.

[4] = tested on: Rbp1−/− and Rxrγ−/− mice; assay: Y-maze spontaneous alternation; format: in vivo, mouse; settings: 5-6 hours prior to testing
Procedure: The Y-maze apparatus and the procedure were as previously described (Wietrzych et al., 2005). Briefly, each mouse was placed at the end of one arm and allowed to explore freely the apparatus for 5 min, with the experimenter out of the animal's sight. Spontaneous alternation performance (SAP) was assessed visually by scoring the pattern of entries into each arm and expressed as a percentage of total number of entries, discounting the first two visits. Total entries were scored as an index of ambulatory activity in the Y-maze, but none of tested mice had to be excluded due to low locomotor performance (score below 9 entries).
(§3) Vehicle treatments consisted of 3% ethanol and 3% DMSO solution in sunflower oil. Treatments were administered by intraperitoneal injections at volume/weight ratio 3 ml/kg between 8-10 am and 5-6 h before the test as previously validated (Wietrzych-Schindler M, 2011).

[5] = tested on: Rbp1−/−, Rxrγ−/− and WT mice; assay: Forced swim test after acute treatment; format: in vivo, mouse; settings: Rbp1−/− mice, acute i.p. treatment 5-6 h before the test
Procedure: (§4) The forced swim paradigm was carried out between 1 pm and 4 pm in a 3-litre glass beaker half-filled with water at 22-23° C. (the water depth was 17 cm). All mice were tested only once in this task. To this end, each mouse was lowered gently into the water and the time of immobility was scored during a 6-minute testing period. The mouse was judged immobile when it floated in an upright position and made only small movements to keep its head above the water. After 6 min, the mouse was taken out of the water, left to dry under a red light lamp and returned to its home cage. The immobility scores of each animal were used as an index of despair behavior.
as §3
as §4, with “paradigm (Dalvi and Lucki, 1999)” for “paradigm”, “2-litre” for “3-litre”

[6] = Rbp1−/− mice, ATRA 5 mg/kg, UVI2108 1 mg/kg, MA 5 mg/kg, DHA 1 mg/kg, TTNPB 5 mg/kg

CC(=O)OCC[C@@H](C)/C=C/C=C(C)\C=C\C1=C(C)CCCC1(C)C (stereo in doubt) [9CDHROL-ES, (R)-9-cis-13,14-dihydroretinyl acetate]
9CDHRA levels in cells after treatment [1]: strong increase
9CDHROL levels in cells after treatment [1]: excellent/strongly
conversion to 9CDHRA [1]: excellent precursor
production of 9CDHRA by the ester form compared with 9CDHROL and 9CDHRA, respectively [2]: higher production

CC1=C(/C=C/C(C)=C\C=C\C(C)=C\C=C\C=C(C)\C=C\C=C(C)\C=C\C2=C(C)CCCC2(C)C)C(C)(C)CCC1 [9CBC, 9-cis-β,β-Carotene]
ATROL levels in cells after treatment ([1]; 10^−6M): a low conversion or induced increase
9CDHROL levels in cells after treatment [1]: no or just a weak increase; also recorded: weak significant increase
9CBC in cells after treatment [1]: could detect 9CBC
9CDHBC peak in cells after treatment [1]: higher peak was observed
conversion to 9CDHRA [1]: not converted to 9CDHRA
9CDHRA levels in cells after treatment (metabolism / accumulation) [2]: not converted to 9CDHRA

CCOC(=O)C[C@@H](C)/C=C/C=C(C)\C=C\C1=C(C)CCCC1(C)C [9CDHRA-ES, Ethyl (9Z,13R)-13,14-Dihydroretinoate]
9CDHRA levels in cells after treatment [1]: very strong increase
production of 9CDHRA by the ester form compared with 9CDHROL and 9CDHRA, respectively [2]: higher production
9CDHRA levels in cells after treatment (metabolism / accumulation) [2]: strong accumulation

CC1=C(/C=C/C(C)=C\C=C\C(C)=C\C(=O)O)C(C)(C)CCC1 [9CRA, 9-cis-retinoic acid, reference compound]
expression of genes induced by AM580 (RAR-RXR target genes) [3]: also induced
number of transcripts regulated ([3]; 10 μM (R)-9CDHRA, 1 μM 9CRA, 12 h, FC>2): 450
expression of genes that are direct targets of RXR permissive heterodimers (LXR-RXR, PPAR-RXR) and RAR-RXR ([3]; LG268 100 nM): induce the expression of many genes

CC1(C)CCC(C)(C)c2cc(C(=O)Nc3ccc(C(=O)O)cc3)ccc21 [AM580, reference compound]
expression of genes that are direct targets of RXR permissive heterodimers (LXR-RXR, PPAR-RXR) and RAR-RXR ([3]; LG268 100 nM): also induced

CC1=C(/C=C/C(C)=C/C=C/C(C)=C/C=C/C=C(C)/C=C/C=C(C)/C=C/C2=C(C)CCCC2(C)C)C(C)(C)CCC1 [ATBC, all-trans-β,β-carotene, reference compound]
9CDHROL levels in cells after treatment [1]: did not display any increase; also recorded: did not result in any increase
9CBC in cells after treatment [1]: no 9CBC could be detected
9CDHBC peak in cells after treatment [1]: not be conclusively detected
conversion to 9CDHRA [1]: not converted to 9CDHRA
ATBC level in cells after ATBC-treatment ([1]; detectable at 411 nm, eluting at 27.2 min): present in very high levels
9CDHRA levels in cells after treatment (metabolism / accumulation) [2]: not converted to 9CDHRA

Cc1cc(SCc2sc(-c3ccc(C(F)(F)F)cc3)nc2C)ccc1OCC(=O)O [GW1516, reference compound]
expression of genes that are direct targets of RXR permissive heterodimers (LXR-RXR, PPAR-RXR) and RAR-RXR ([3]; LG268 100 nM): also induced

O=C(O)Cc1cccc(OCCCN(Cc2cccc(C(F)(F)F)c2Cl)CC(c2ccccc2)c2ccccc2)c1 [GW3965, reference compound]
expression of genes that are direct targets of RXR permissive heterodimers (LXR-RXR, PPAR-RXR) and RAR-RXR ([3]; LG268 100 nM): also induced

Cc1cc2c(cc1C1(c3ccc(C(=O)O)cn3)CC1)C(C)(C)CCC2(C)C [LG268, reference compound]
expression of genes that are direct targets of RXR permissive heterodimers (LXR-RXR, PPAR-RXR) and RAR-RXR ([3]; LG268 100 nM): induce the expression of many genes
transcripts of the set common to (R)-9CDHRA and 9CRA also regulated by LG268 ([3]; LG268 100 nM): 61

C/C(=C\c1ccc(C(=O)O)cc1)c1ccc2c(c1)C(C)(C)CCC2(C)C [TTNPB]
working memory in spontaneous alternation in the Y-maze [4, 6]: not
immobility (despair) in the forced swim test [5]: did not display such effects

COC(C)(C)CCCC(C)C/C=C/C(C)=C/C(=O)O (stereo not shown) [methoprene acid]
working memory in spontaneous alternation in the Y-maze [4, 6]: pro-mnemonic effects
working memory in spontaneous alternation in the Y-maze ([4]; Rbp1−/− mice, ATRA 5 mg/kg, UVI2108 1 mg/kg, MA 5 mg/kg, DHA 1 mg/kg, TTNPB 5 mg/kg, listed as MA): normalised
working memory in spontaneous alternation in the Y-maze ([4]; Rxrγ−/− mice, same doses): not
immobility (despair) in the forced swim test [5]: normalized increased despair
immobility (despair) in the forced swim test ([5]; listed as MA): normalised
